According to ChEMBL document CHEMBL1122746, “Tumor inhibitory triazenes. 3. Dealkylation within an homologous series and its relation to antitumor activity” (J Med Chem, 1984):

Legend:
Mus musculus [1] = species: Mus musculus; test: (§1) Compound is evaluated in vitro for percent metabolism by mouse liver microsomes; assay type: functional; parameters: concentration or dose not given beside the values
Mus musculus [2] = test: Antitumor activity is evaluated as the percent increase in lifespan of TLX/5 tumor bearing animals at 100 mg/kg, daily x 5; assay type: functional
Mus musculus [3] = test: Antitumor activity is evaluated as the percent increase in lifespan of TLX/5 tumor bearing animals at 400 mg/kg, daily x 5; assay type: functional
Mus musculus [4] = species: Mus musculus; test: Compound is evaluated for maximum percentage of increase in life span (ILS) in tumor bearing mice
Mus musculus [5] = test: Antitumor activity is evaluated as the percent increase in lifespan of TLX/5 tumor bearing animals at 12.5 mg/kg, daily x 5; assay type: functional
Mus musculus [6] = species: Mus musculus; test: (§2) Compound is evaluated in vitro for percent dealkylation by mouse liver microsomes; assay type: functional; parameters: concentration or dose not given beside the values
Mus musculus [7] = test: Antitumor activity is evaluated as the percent increase in lifespan of TLX/5 tumor bearing animals at 50 mg/kg, daily x 5; assay type: functional
Mus musculus [8] = species: Mus musculus; test: Compound is evaluated in vitro for percent demethylation by mouse liver microsomes; assay type: functional
Mus musculus [9] = test: Antitumor activity is evaluated as the percent increase in lifespan of TLX/5 tumor bearing animals at 25 mg/kg, daily x 5; assay type: functional
Mus musculus [10] = test: Antitumor activity is evaluated as the percent increase in lifespan of TLX/5 tumor bearing animals at 200 mg/kg, daily x 5; assay type: functional
[11] = Partition coefficient (logP); assay type: physicochemical; conditions: octanol/water
Mus musculus [12] = species: Mus musculus; test: as §2; assay type: functional
Mus musculus [13] = species: Mus musculus; test: as §1; assay type: functional

logP ([11]; read-out: logP)	logP [11]	SMILES	Activity (Mus musculus [1])	Increase (Mus musculus [2])	Increase (Mus musculus [3])	max % ILS per µmol/kg (Mus musculus [4])	Increase (Mus musculus [5])	Activity (Mus musculus [6])	Increase (Mus musculus [7])	Activity (Mus musculus [8])	Increase (Mus musculus [9])	Increase (Mus musculus [10])	Activity (Mus musculus [12])	Activity (Mus musculus [13])
–	–	CCCN(C)/N=N/c1ccc(C(N)=O)cc1	58.3%	41%	-45%	0.996 %·kg/µmol	7%	33%	60%	25.3%	113%	20%	–	–
–	–	CON(C)/N=N/c1ccc(C(N)=O)cc1	–	-3%	-3%	–	-3%	–	-5%	–	-3%	-7%	–	–
1.49	–	CCCCCN(C)/N=N/c1ccc(C(=O)O)cc1	–	–	–	–	–	–	–	–	–	–	–	–
–	–	CCCCCCN(C)/N=N/c1ccc(C(N)=O)cc1	27%	83%	30%	0.218 %·kg/µmol	4%	14%	11%	13%	9%	56%	–	–
–	–	CCCCCN(C)/N=N/c1ccc(C(N)=O)cc1	41.5%	71%	-51%	0.392 %·kg/µmol	3%	23.5%	79%	18%	7%	-28%	–	–
2.77	–	CCCCCCCCN(C)/N=N/c1ccc(C(=O)O)cc1	–	–	–	–	–	–	–	–	–	–	–	–
0.34	–	CC(C)N(C)/N=N/c1ccc(C(=O)O)cc1	–	–	–	–	–	–	–	–	–	–	–	–
–	–	CCCCCCCN(C)/N=N/c1ccc(C(N)=O)cc1	–	65%	-20%	0.18 %·kg/µmol	2%	–	15%	11%	6%	15%	12%	23%
0	–	C#CCN(C)/N=N/c1ccc(C(=O)O)cc1	–	–	–	–	–	–	–	–	–	–	–	–
1.95	–	CCCCCCN(C)/N=N/c1ccc(C(=O)O)cc1	–	–	–	–	–	–	–	–	–	–	–	–
–	-0.44	CN(C)/N=N/c1ccc(C(=O)O)cc1	–	–	–	–	–	–	–	–	–	–	–	–
0.46	–	CCCN(C)/N=N/c1ccc(C(=O)O)cc1	–	–	–	–	–	–	–	–	–	–	–	–
–	–	CN(Cc1ccccc1)/N=N/c1ccc(C(N)=O)cc1	–	9%	-36%	0.145 %·kg/µmol	-3%	–	3%	–	-1%	86%	–	–
0.32	–	C=CCN(C)/N=N/c1ccc(C(=O)O)cc1	–	–	–	–	–	–	–	–	–	–	–	–
–	–	CN(O)/N=N/c1ccc(C(N)=O)cc1	–	19%	55%	0.036 %·kg/µmol	–	–	19%	–	–	37%	–	–
1.33	–	CCC(C)CN(C)/N=N/c1ccc(C(=O)O)cc1 (stereo not drawn)	–	–	–	–	–	–	–	–	–	–	–	–
2.58	–	CCCCCCCN(C)/N=N/c1ccc(C(=O)O)cc1	–	–	–	–	–	–	–	–	–	–	–	–
–	–	CCCCCCCCCCCCN(C)/N=N/c1ccc(C(N)=O)cc1	–	-1%	9%	0.023 %·kg/µmol	1%	–	3%	–	3%	13%	–	–
0.04	–	CCN(C)/N=N/c1ccc(C(=O)O)cc1	–	–	–	–	–	–	–	–	–	–	–	–
–	–	CN(/N=N/c1ccc(C(N)=O)cc1)C(C)(C)C	–	0%	–	–	4%	–	-2%	–	-4%	0%	–	–
–	–	CN(C)/N=N/c1ccc(C(N)=O)cc1	57.3%	51%	-26%	1.45 %·kg/µmol	94%	1.8%	65%	55.5%	47%	-7%	–	–
–	–	CCN(CC)/N=N/c1ccc(C(N)=O)cc1	53.3%	–	–	–	–	53.3%	–	0%	–	–	–	–
0.97	–	CCCCN(C)/N=N/c1ccc(C(=O)O)cc1	–	–	–	–	–	–	–	–	–	–	–	–
–	–	CN(CCO)/N=N/c1ccc(C(N)=O)cc1	–	7%	38%	0.047 %·kg/µmol	1%	–	5%	–	0%	42%	–	–

SMILES	logP ([11]; read-out: logP)	logP [11]	Activity (Mus musculus [1])	Increase (Mus musculus [2])	Increase (Mus musculus [3])	max % ILS per µmol/kg (Mus musculus [4])	Increase (Mus musculus [5])	Activity (Mus musculus [6])	Increase (Mus musculus [7])	Activity (Mus musculus [8])	Increase (Mus musculus [9])	Increase (Mus musculus [10])	Activity (Mus musculus [12])	Activity (Mus musculus [13])
CCCCN(C)/N=N/c1ccc(C(N)=O)cc1	2.46	–	55%	83%	-51%	0.426 %·kg/µmol	18%	33.5%	91%	21.5%	23%	-12%	–	–
CCN(C)/N=N/c1ccc(C(N)=O)cc1	1.7	–	61.8%	76%	-49%	0.693 %·kg/µmol	7%	33.7%	100%	28.2%	84%	-31%	–	–
CCCCCCCCN(C)/N=N/c1ccc(C(N)=O)cc1	4.7	–	19.5%	19%	56%	0.163 %·kg/µmol	-2%	8%	4%	11.5%	4%	112%	–	–
CC(C)N(C)/N=N/c1ccc(C(N)=O)cc1	2	–	–	41%	-60%	0.458 %·kg/µmol	21%	–	45%	–	52%	-10%	–	–
